Experimental findings from ChEMBL document CHEMBL4725384, “Monoaryl derivatives as transthyretin fibril formation inhibitors: Design, synthesis, biological evaluation and structural analysis” (Bioorg Med Chem, 2020) are described below.

The source made the active and inactive calls. No cut-off for these calls is given here.

The target in test [1] is Transthyretin (Homo sapiens) (UniProt P02766). The experiment in a line: Stabilization of wild type human transthyretin expressed in Escherichia coli BL21(DE3) assessed as fibril formation at 7.2 uM preincubated for 30 mins with transthyretin followed by measuring after 72 hrs maintaining pH of 4.4 by UV-Visible spectrophotometer relative to control.
The target is the same in test [2]. The test is described as follows: Stabilization of wild type human transthyretin expressed in Escherichia coli BL21(DE3) assessed as decrease in TTR-amyloid beta fibril formation at 10 uM preincubated for 6 hrs with transthyretin followed by measuring after 96 hrs maintaining pH of 4.4 by thioflavin T binding assay relative to control.

For orientation: inhibition means the percentage by which the read-out fell short of the control. Turning to `O=C(O)CCO/N=C/c1ccc(O)cc1`, in test [1], the Activity amounted to 17%. The inhibition result in test [2] was “Active”.

On to `O=C(O)CCO/N=C/c1ccc(O)cc1O`, for which, in test [1], the Activity worked out at 38%. Further, the inhibition in test [2] was found to be 68%.

Take `O=C(O)CCO/N=C/c1cc(O)cc(O)c1`: in test [1], the Activity was 39%.

As to `O=C(O)CO/N=C/c1cc(Br)cc(Br)c1OCC(=O)O`, the Activity in test [1] is 86%. Further, in test [2], the inhibition result is “inactive”.

Take `O=C(O[C@@H]1Cc2c(O)cc(O)cc2O[C@@H]1c1cc(O)c(O)c(O)c1)c1cc(O)c(O)c(O)c1`: the inhibition in test [2] is 53%.

As to `O=C(O)CO/N=C/c1ccc(OCC(=O)O)cc1`, the Activity in test [1] was 80%. Besides, the inhibition entry in test [2] was “inactive”.

For `O=C(O)c1cc(-c2ccc(F)cc2F)ccc1O`, the Activity in test [1] is 9%.

Take `O=C(O)CO/N=C/c1cc(Br)cc(Br)c1O`: the Activity in test [1] stood at 35%.

On to `O=C(O)CCO/N=C/c1cccc(O)c1`, for which the Activity in test [1] worked out at 42%. The inhibition result in test [2] was “Active”.

For the molecule `O=C(O)CCO/N=C/c1ccc(O)c(O)c1`, in test [1], the Activity was 34%.

On to `O=C(O)CO/N=C/c1ccccc1OCC(=O)O`, for which the Activity in test [1] turned out to be 100%. In test [2], the inhibition entry is “inactive”.

Consider `O=C(O)CCO/N=C/c1cc(Br)cc(Br)c1O`, for which the Activity in test [1] came out at 16%. The inhibition result in test [2] was “Active”.

As to `O=C(O)CO/N=C/c1ccccc1O`, in test [1], the Activity came to 100%.

For `O=C(O)CO/N=C/c1cccc(OCC(=O)O)c1`, the Activity in test [1] was found to be 100%. For the same molecule, in test [2], the inhibition entry was “inactive”.

With `O=C(O)CO/N=C/c1cccc(O)c1`, the Activity in test [1] came out at 100%.

Turning to `O=C(O)CO/N=C/c1ccc(O)cc1`, the Activity in test [1] was determined as 59%.

Consider `O=C(O)CCO/N=C/c1ccccc1O`, for which the Activity in test [1] is 38%. In test [2], the inhibition result is “Active”.
